# Bridge positions count the residues as written; N and C are the ends. Peptide text beside a SMILES is read from it.
# Assay: Calcitonin potency assay of the purified product (MRC units per mg)
# Conditions: purified freeze-dried product of Example 1
structure (smiles),measurement,value
"CC(C)C[C@H](NC(=O)[C@H](CCCCN)NC(=O)CNC(=O)[C@H](CC(C)C)NC(=O)[C@@H](NC(=O)[C@@H]1CSSC[C@H](N)C(=O)N[C@@H](CC(N)=O)C(=O)N[C@@H](CC(C)C)C(=O)N[C@@H](CO)C(=O)N[C@@H]([C@@H](C)O)C(=O)N1)C(C)C)C(=O)N[C@@H](CO)C(=O)N[C@@H](CCC(N)=O)C(=O)N[C@@H](CCC(=O)O)C(=O)N[C@@H](CC(C)C)C(=O)N[C@@H](Cc1c[nH]cn1)C(=O)N[C@@H](CCCCN)C(=O)N[C@@H](CC(C)C)C(=O)N[C@@H](CCC(N)=O)C(=O)N[C@H](C(=O)N[C@@H](Cc1ccc(O)cc1)C(=O)N1CCC[C@H]1C(=O)N[C@@H](CCCNC(=N)N)C(=O)N[C@H](C(=O)N[C@@H](CC(N)=O)C(=O)N[C@H](C(=O)NCC(=O)N[C@@H](CO)C(=O)NCC(=O)N[C@H](C(=O)N1CCC[C@H]1C(N)=O)[C@@H](C)O)[C@@H](C)O)[C@@H](C)O)[C@@H](C)O [des-Ser^2-SCT, des-ser^2 -salmon calcitonin] (H-CNLSTCVLGKLSQELHKLQTYPRTNTGSGTP-NH2; disulfide 1-6)",biological potency (assayed MRC units per mg),5600 MRC units per mg

# — patent US4217268A, “Synthesis of peptides” (priority 1978, dated 1980)
